Data reported in ChEMBL document CHEMBL4321847, “Discovery of 6-(2,4-Dichlorophenyl)-5-[4-[(3S)-1-(3-fluoropropyl)pyrrolidin-3-yl]oxyphenyl]-8,9-dihydro-7H-benzo[7]annulene-2-carboxylic acid (SAR439859), a Potent and Selective Estrogen Receptor Degrader (SERD) for the Treatment of Estrogen-Receptor-Positive Breast Cancer” (J Med Chem, 2020).
Calls of active or inactive are those of the source. The rule behind the calls is not given here.

Assays:
[1] = in vitro; settings: human, microsomes
Description: Metabolic stability in human liver microsomes assessed as total metabolism

[2] = in vitro; settings: rat, microsomes
Description: Metabolic stability in rat microsomes assessed as total metabolism

[3] = physchem; settings: buffer, pH 7.4
Description: Lipophilicity, logD of the compound in phosphate buffer at pH 7.4

[4] = in vitro; settings: mouse, microsomes
Description: Metabolic stability in mouse microsomes assessed as total metabolism

[5] = in vivo; settings: mouse, po, 10 mg/kg
[6] = in vivo; settings: rat, iv, 3 mg/kg
Description: Clearance in rat at 3 mg/kg, iv or 10 mg/kg, po

[7] = in vivo; settings: dog
Description: Half life in dog at 3 mg/kg, iv or 10 mg/kg, po

[8] = in vivo; settings: rat
Description: Half life in rat at 3 mg/kg, iv or 10 mg/kg, po

[9] = system: MCF7; settings: Homo sapiens; as to T/C: time not given here
[10] = in vivo; settings: rat, iv, 3 mg/kg; remark: listed apart in the source
Description: Volume of distribution at steady state in rat at 3 mg/kg, iv or 10 mg/kg, po

[11] = in vivo; settings: dog, iv, 3 mg/kg
Description: Volume of distribution at steady state in dog at 3 mg/kg, iv or 10 mg/kg, po

[12] = in vivo; settings: rat, po, 10 mg/kg
[13] = system: MCF7; format: functional, Homo sapiens; settings: at 25 mg/kg; as to T/C: time not given here
[14] = in vivo; settings: dog, po, 10 mg/kg
[15] = in vivo; settings: dog, iv, 3 mg/kg; remark: listed apart in the source
Description: Clearance in dog at 3 mg/kg, iv or 10 mg/kg, po

[16] = in vivo; settings: mouse
Description: Half life in mouse at 3 mg/kg, iv or 10 mg/kg, po

[17] = in vivo; settings: mouse, iv, 3 mg/kg
Description: Clearance in mouse at 3 mg/kg, iv or 10 mg/kg, po

[18] = in vivo; settings: mouse, iv, 3 mg/kg; remark: listed apart in the source
Description: Volume of distribution at steady state in mouse at 3 mg/kg, iv or 10 mg/kg, po

metabolised [1] [%] | metabolised [2] [%] | logD [3] | metabolised [4] [%] | Compound | further results
31 | 44 | 4.59 | 20 | Oc1ccc2c(c1)CCCC(c1ccc(F)cc1Cl)=C2c1ccc(O[C@H]2CCN(CCCF)C2)cc1 | 
0 | 4 | 2.63 | 5 | O=C(O)c1ccc2c(c1)CCCC(c1ccccc1Cl)=C2c1ccc(O[C@H]2CCN(CCCF)C2)cc1 | 
28 | 2 | 2.59 | 0 | O=C(O)c1ccc2c(c1)CCCC(c1cccc(F)c1Cl)=C2c1ccc(O[C@H]2CCN(CCCF)C2)cc1 | 
72 | 74 | 2.35 | 65 | Oc1ccc2c(c1)CCCC(c1ccc3[nH]ncc3c1)=C2c1ccc(O[C@H]2CCN(CCCF)C2)cc1 | 
30 | 17 | 5.27 | 18 | Oc1ccc2c(c1)CCCC(c1ccc(Cl)cc1Cl)=C2c1ccc(O[C@H]2CCN(CCCF)C2)cc1 | 
49 | 58 |  | 55 | Oc1ccc(C2=C(c3ccc(O[C@H]4CCN(CCCF)C4)cc3)c3cc(O)ccc3CCC2)cc1 | 
34 | 53 | 4 | 44 | Oc1ccc2c(c1)CCCC(c1ccccc1)=C2c1ccc(O[C@H]2CCN(CCCF)C2)cc1 | 
70 | 80 | 2.11 | 31 | Oc1ccc2c(c1)CCCC(c1cccnc1)=C2c1ccc(O[C@H]2CCN(CCCF)C2)cc1 | 
2 | 1 | 2.9 | 15 | O=C(O)c1ccc2c(c1)CCCC(c1ccc(Cl)cc1)=C2c1ccc(O[C@H]2CCN(CCCF)C2)cc1 | 
37 | 45 | 4.32 | 41 | Oc1ccc2c(c1)CCCC(c1cccc(Cl)c1F)=C2c1ccc(O[C@H]2CCN(CCCF)C2)cc1 | 
41 | 53 | 4.11 | 31 | Oc1ccc2c(c1)CCCC(c1ccccc1Cl)=C2c1ccc(O[C@H]2CCN(CCCF)C2)cc1 | 
57 | 80 |  | 30 | Oc1ccc2c(c1)C(c1ccc(O[C@H]3CCN(CCCF)C3)cc1)=C(c1ccc(F)cc1Cl)CCC2 | 
70 | 60 | 2.11 | 39 | Oc1ccc2c(c1)CCCC(c1ccncc1)=C2c1ccc(O[C@H]2CCN(CCCF)C2)cc1 | 
39 | 75 | 3.49 | 61 | Oc1ccc2c(c1)CCCC(c1ccc3[nH]ccc3c1)=C2c1ccc(O[C@H]2CCN(CCCF)C2)cc1 | 
55 | 48 |  | 25 | Oc1ccc(C2=C(c3ccc(O[C@H]4CCN(CCCF)C4)cc3)c3ccc(O)cc3CCC2)cc1 | 
10 | 4 | 3.46 | 12 | O=C(O)c1ccc2c(c1)CCCC(c1ccc(SC(F)(F)F)cc1)=C2c1ccc(O[C@H]2CCN(CCCF)C2)cc1 | 
20 | 2 | 3.43 | 10 | O=C(O)c1ccc2c(c1)CCCC(c1ccc(OC(F)(F)F)cc1)=C2c1ccc(O[C@H]2CCN(CCCF)C2)cc1 | 

Compound | metabolised [1] [%] | metabolised [2] [%] | logD [3] | metabolised [4] [%] | further results
O=C(O)c1ccc2c(c1)CCCC(c1ccc(Cl)cc1Cl)=C2c1ccc(O[C@H]2CCN(CCCF)C2)cc1 [AMCENESTRANT] | 12 | 4 | 3.25 | 13 | bioavailability [5]: 62%; clearance [6]: 3.17 mL/min/kg; half-life [7]: 9.8 h; half-life [8]: 4.13 h; TGI [9]: Active; Vd [10]: 0.83 L/kg; Vd [11]: 0.5 L/kg; bioavailability [12]: 76%; T/C [13]: -28%; bioavailability [14]: 54%; clearance [15]: 0.5 mL/min/kg; half-life [16]: 1.98 h; clearance [17]: 32 mL/min/kg; Vd [18]: 6.1 L/kg
